Test results: BigSolDB 2.1

O=C1CCC(c2ccccc2)=NN1
solubility (mole fraction)
Details	in DMSO	in ethanol	in ethyl acetate	in ethylene glycol	in isopropanol	in n-butanol	in propylene glycol	in sec-butanol	in transcutol	in water
293.2 K	0.637	0.00407	0.00878	0.0074	0.0031	0.00474	0.00654	0.00512	0.423	7.24e-07
298.2 K	0.647	0.00466	0.00994	0.00836	0.00378	0.0053	0.00732	0.00555	0.451	9.18e-07
303.2 K	0.658	0.00529	0.0111	0.00921	0.0046	0.00601	0.00846	0.00618	0.476	1.13e-06
308.2 K	0.668	0.00607	0.0128	0.0101	0.00555	0.0067	0.00951	0.00687	0.502	1.37e-06
313.2 K	0.677	0.00696	0.0145	0.0109	0.00651	0.00768	0.0103	0.00778	0.524	1.61e-06

Details	solubility (mole fraction)
in PEG-400, 293.2 K	0.0585
in PEG-400, 298.2 K	0.0646
in PEG-400, 303.2 K	0.0709
in PEG-400, 308.2 K	0.078
in PEG-400, 313.2 K	0.0847
